Calls of active or inactive are those of the source. No rule for the calls is given here.
system: MCF-7/NOD2 cells, MDP-induced IL-8 secretion; assay: NOD2 pathway IL-8 secretion inhibitors – MCF-7/NOD2 cells, MDP stimulus, SAR follow-up (AID 2260)

IC50, inactive:
O=C(O)c1c(NC(=O)N2CCOCC2)sc2c1CCCC2 > 25 µM
Cc1ccc(S(=O)(=O)n2c(N)nc3cc(C)c(C)cc32)cc1 > 5 µM
COc1ccc(S(=O)(=O)n2c(N)nc3ccccc32)cc1 > 5 µM
Cc1ccc(S(=O)(=O)n2c(N)nc3ccccc32)cc1 > 25 µM
Nc1nc2ccccc2n1S(=O)(=O)c1ccccc1 > 5 µM
Nc1nc2ccccc2n1S(=O)(=O)c1ccc([N+](=O)[O-])cc1 > 5 µM

— PubChem BioAssay AID2260 (Sanford-Burnham Center for Chemical Genomics, 2010)
